Measured values published in article PMC11277992, “New Zosteropenillines and Pallidopenillines from the Seagrass-Derived Fungus Penicillium yezoense KMM 4679” (Marine Drugs, 2024).

What was measured:
Candida albicans KMM 455 = assay: Antimicrobial activity, microbial growth in broth (OD620); type: cell-based; conditions: for inhibition of growth at 100 µM: Candida albicans, KMM455, compound at 100 µM, read-out: Inhibition of Microbial Growth, % of Control, C. albicans
Method: (§1) The yeast-like fungus Candida albicans KMM 455 and bacterial strains Staphylococcus aureus ATCC 21027 and Escherichia coli VKPM (B-7935) (Collection of Marine Microorganisms PIBOC FEB RAS) were cultured on solid-medium Mueller–Hinton broth with agar (16.0 g/L) in a Petri dish at 37 °C for 24 h. The assays were performed in 96-well microplates in an appropriate Mueller–Hinton broth. Each well contained 90 µL of a bacterial or yeast-like fungal suspension (10^6 CFU/mL). Then, 10 µL was added of a compound diluted at concentrations from 1.5 µM to 100.0 µM using twofold dilution (DMSO concentration < 1%). Culture plates were incubated overnight at 37 °C, and the OD620 was measured using a Multiskan FC spectrophotometer (Thermo Scientific Inc., Beverly, MA, USA). The antibiotic gentamicin and antifungal agent nitrofungin were used as positive controls at 1 mg/mL; 1% DMSO in PBS served as a negative control. Examination was performed twice and in triplicate. The results were calculated as a percentage of the control data using SigmaPlot 14.0 software.

[1] = test system: Escherichia coli VKPM (B-7935); assay: as above; type: cell-based; conditions: read-out: Inhibition of Microbial Growth, % of Control, E. coli; for inhibition of growth at 100 µM: compound at 100 µM
Method: as §1

[2] = test system: Staphylococcus aureus ATCC 21027; assay: as above; type: cell-based; conditions: read-out: Inhibition of Microbial Growth, % of Control, S. aureus; for inhibition of growth at 100 µM: ATCC21027, compound at 100 µM
Method: as §1

[3] = test system: normal human kidney cells; assay: Cytotoxic activity (MTT assay); type: cell-based; conditions: 100 µM, 24 h
Method: (§2) The influence of compounds 1, 2 and 4–14 on the viability of normal human kidney […] cells, as well as human prostate PC-3, cervical HeLa and breast MCF-7 cancer cells, was measured using the MTT assay after 24 h of treatment.
(§3) The human prostate cancer cells PC-3 and CRL-1435 and the human embryonic kidney cells HEK-293 and CRL-1573TM were purchased from the American Type Culture Collection (ATCC; Manassas, VA, USA). PC-3 and HEK-293 cells were cultured in DMEM medium containing 10% fetal bovine serum (Biolot, St. Petersburg, Russia) and 1% penicillin/streptomycin (Biolot, St. Petersburg, Russia) at 37 °C in a humidified atmosphere with 5% (v/v) CO2. The cells were incubated in cultural flasks until sub-confluent (~80%).
PC-3 cells (5 × 10^3 cells/well) and HEK 293 cells (8 × 10^3 cells/well) were seeded in a 96-well plate and incubated overnight. Then, compounds were added at concentrations of 1–100 μM and incubated for another 24 h. Cell viability was then determined by the MTT (3-(4,5-dimethylthiazol-2-yl)-2,5-diphenyltetrazolium bromide) method according to the manufacturer’s instructions (Sigma-Aldrich, St. Louis, MO, USA). The absorbance of the converted formazan was measured using a Multiskan FC microplate photometer (Thermo Scientific, Waltham, MA, USA) at λ = 570 nm. The results are presented as percentages of the control data.

[4] = test system: human prostate PC-3 cancer cells; assay: Cytotoxic activity (MTT assay); type: cell-based; conditions: 100 µM, 24 h, MTT
Method: as §3
(§4) PC-3 cells (5 × 10^3 cells/well) and HEK 293 cells (8 × 10^3 cells/well) were seeded in a 96-well plate and incubated overnight. […] Cell viability was then determined by the MTT (3-(4,5-dimethylthiazol-2-yl)-2,5-diphenyltetrazolium bromide) method according to the manufacturer’s instructions (Sigma-Aldrich, St. Louis, MO, USA). The absorbance of the converted formazan was measured using a Multiskan FC microplate photometer (Thermo Scientific, Waltham, MA, USA) at λ = 570 nm. The results are presented as percentages of the control data.

[5] = test system: cervical HeLa cancer cells; assay: Cytotoxic activity (MTT assay); type: cell-based, human; conditions: 24 h; for Cell Viability, % of Control, HeLa: 100 µM, MTT; for IC50: Homo sapiens, HeLa, read-out: IC50, HeLa cell viability
[6] = test system: breast MCF-7 cancer cells; assay: Cytotoxic activity (MTT assay); type: cell-based, human; conditions: 100 µM, 24 h, MTT
Method: as §2, §4

[7] = test system: CoCl2-treated HEK-293 cells; assay: Lipid peroxidation level (MitoCLox) in CoCl2-treated cells; type: cell-based, human; conditions: MitoCLox fluorescence dye
Method: The fluorescence probe MitoCLox (Lumiprobe, Moscow, Russia) was used for the detection of the lipid peroxidation level in CoCl2-treated cells. It was added in the cells for 1 h at a concentration of 200 nM. After 1 h, the cells were washed with PBS and fluorescence was measured in ratiometric mode with λem = 520/590 nm using a PHERAStar FS plate reader (BMG Labtech, Offenburg, Germany). The data were processed with MARS Data Analysis v. 3.01R2 (BMG Labtech, Offenburg, Germany) and calculated as a 520/590 ratio.

MCF-7 cells = assay: Drug combination study with doxorubicin (MTT); type: cell-based, human; conditions: 24 h

SMILES	inhibition of growth at 100 µM (Candida albicans KMM 455)	inhibition of growth at 100 µM [1]	inhibition of growth at 100 µM [2]	Cell Viability, % of Control, HEK-298 [3]	Cell Viability, % of Control, PC-3 [4]	Cell Viability, % of Control, HeLa [5]	Cell Viability, % of Control, MCF-7 [6]	lipid peroxide levels in CoCl2-treated HEK-293 cells [7]	IC50 [5]	Inhibition of Microbial Growth, % of Control, C. albicans (Candida albicans KMM 455; positive control at 1 mg/mL)	inhibition of growth at 1000 µg/mL ([1]; positive control at 1 mg/mL)	inhibition of growth at 1000 µg/mL ([2]; ATCC21027, positive control at 1 mg/mL)	decrease of MCF-7 cell viability (MCF-7 cells; doxorubicin alone at 0.1 µM)	decrease of MCF-7 cell viability (MCF-7 cells; doxorubicin alone at 1 µM)
C[C@H]1C=C[C@H]2[C@H](O)[C@@H](C)CC[C@@H]2[C@H]1C(=O)CCO [Compound 8, 13-dehydroxypallidopenilline A]	0%	0%	19.9 ± 1.82%	86.10 ± 2.24 % of Control	83.60 ± 1.81 % of Control	72.66 ± 2.49 % of Control	81.21 ± 5.56 % of Control							
CC1=C[C@H](O)[C@H]2C[C@@H](C)CC[C@@H]2[C@H]1C(=O)CCO [Compound 1, zosteropenilline M]	8.32 ± 0.62%	0%	30.1 ± 2.42%	95.16 ± 4.01 % of Control	89.25 ± 0.44 % of Control	66.49 ± 6.19 % of Control	86.42 ± 1.76 % of Control	significantly decreased						
CC1(O)CCC2C(C=CC(C)(O)C2C(=O)CCO)C1 (centres unmarked) [Compound 4, 8-hydroxyzosteropenilline G]	11 ± 2.31%	0%	0%	94.71 ± 1.53 % of Control	94.71 ± 1.53 % of Control	81.80 ± 6.76 % of Control	81.92 ± 3.92 % of Control							
CC1=CC(O)C2CC(C)(O)CCC2C1C(=O)CCO (stereo not drawn) [Compound 2, 11-epi-8-hydroxyzosteropenilline M]	6.12 ± 1.89%	0%	0%	90.98 ± 2.82 % of Control	90.98 ± 2.82 % of Control	44.12 ± 5.13 % of Control	57.46 ± 1.82 % of Control		87.3 µM					
O=[N+]([O-])c1ccc(O)c(Cl)c1 [nitrofungin, reference compound]										98.13 ± 0.69 % of Control				
CC(=O)[C@@H]1[C@H]2CC[C@@](C)(O)C[C@@H]2C=C[C@@]1(C)O [Compound 5, zosteropenilline O]	35.3 ± 1.16%	0%	0%	85.64 ± 1.85 % of Control	91.20 ± 3.37 % of Control	37.12 ± 3.85 % of Control	77.40 ± 2.73 % of Control	significantly decreased	82.5 µM					
CC1CCC2C(C1)C(Cl)C(O)C(C)(O)C2C(=O)CCO (centres unmarked) [Compound 10, zosteropenilline S]	0%	0%	15.7 ± 0.36%	98.10 ± 1.15 % of Control	85.98 ± 2.13 % of Control	68.69 ± 6.21 % of Control	84.85 ± 4.90 % of Control							
CC(=O)[C@@H]1[C@H]2CC[C@H](CO)C[C@@H]2C=C[C@@]1(C)O [Compound 6, zosteropenilline P]	17.3 ± 2.55%	0%	29 ± 1.66%	83.26 ± 3.78 % of Control	83.15 ± 1.72 % of Control	71.44 ± 3.99 % of Control	82.05 ± 1.31 % of Control							
C[C@H]1CC[C@H]2[C@@H](C=C[C@@](C)(O)[C@@H]2C(=O)CCO)[C@@H]1O [Compound 13, pallidopenilline A]	0%	0%	15.5 ± 1.35%	89.76 ± 3.31 % of Control	89.76 ± 3.31 % of Control	71.85 ± 3.02 % of Control	95.05 ± 1.51 % of Control							
CNC(C)C1CCC(N)C(OC2C(N)CC(N)C(OC3OCC(C)(O)C(NC)C3O)C2O)O1 (centres unmarked) [Gentamicin, gentamicin, reference compound]											97.6 ± 2.1%	98.6 ± 1.15%		
COc1cccc2c1C(=O)c1c(O)c3c(c(O)c1C2=O)C[C@@](O)(C(=O)CO)C[C@@H]3O[C@H]1C[C@H](N)[C@H](O)[C@H](C)O1 [doxorubicin, reference compound]													30%	approximately 60%
CC(=O)C1C2CCC(C)C(O)C2C=CC1(C)O (centres unmarked) [Compound 7, zosteropenilline Q]	19.2 ± 3.12%	0%	29.9 ± 4.5%	80.00 ± 0.99 % of Control	88.70 ± 1.10 % of Control	80.80 ± 3.25 % of Control	76.23 ± 4.53 % of Control							
C[C@H]1CC[C@H]2C(=C[C@@H](O)[C@@](C)(O)[C@@H]2C(=O)CCO)C1 [Compound 9, zosteropenilline R]	12 ± 1.14%	0%	11.7 ± 1.71%	96.45 ± 7.64 % of Control	96.44 ± 7.63 % of Control	79.14 ± 6.36 % of Control	79.64 ± 1.67 % of Control	significantly decreased						
